Results from patent US20200325518A1, “Systems and Methods for Metabolic Assessment Utilizing 1-Methoxy-PMS Field” (priority 2019, published 2020).
≈ marks a conversion by molar mass, not a printed value. Read-outs that look alike come from different tables or passages of the source.

How the values were obtained:
Type in all cases: cell-based
Bacteria = assay: BacTiter-Glo luminescence after incubation of bacteria with or without resazurin; conditions: bacteria incubated 4 hours at 35° C. in presence of resazurin versus added after incubation
Procedure: Bacteria were inoculated into 96-well microplates comprise cation-adjusted Mueller Hinton broth in the presence and absence of resazurin (alamarBlue™) and incubated at 35° C. for 4 hours. For wells that were not incubated with resazurin, the growth indicator was added immediately after the 4-hour incubation. BacTiter-Glo® reagent (Promega, Madison, Wis.) was added to all wells and luminescence was measured. […] Thus, it can be advantageous to remove growth indicator from test wells during incubation.

E. coli = assay: CLSI overnight reference method MIC of antimicrobials against E. coli strains; conditions: unit assumed
P. aeruginosa = assay: Rapid AST by surface binding of europium probe with time resolved fluorescence; conditions: Pseudomonas aeruginosa
Procedure: The x-axis of each graph denotes the concentrations of antimicrobial Amikacin (AMK) in micrograms/milliliter, and the y-axis denotes fluorescence from binding to bacteria surface. Growth check data measured by optical density (Absorbance at 600 nm) of the bacterial culture is denoted for each strain.
AST was performed by surface binding of probe followed by time resolved fluorescence. The P aeruginosa strains were incubated at 35° C. in shaking conditions for 4 hours for attaining growth, and growth check was performed by measuring absorbance of the culture at 600 nm after 4 hours of growth.

[1] = E. coli strain Clinical Sample 1
[2] = E. coli strain Clinical Sample 2
[3] = E. coli strain Clinical Sample 4
[4] = E. coli strain Clinical Sample 5
[5] = E. coli strain Clinical Sample 6
[6] = E. coli strain Clinical Sample 7
[7] = E. coli strain Clinical Sample 8
[8] = E. coli strain Clinical Sample 9
[9] = E. coli strain Clinical Sample 10
[10] = E. coli strain Clinical Sample 11
[11] = E. coli strain Clinical Sample 12
[12] = E. coli strain Clinical Sample 13

In the case of `O=c1ccc2[n+]([O-])c3ccc(O)cc3oc-2c1` [resazurin, 7-hydroxy-10-oxidophenoxazin-10-ium-3-one], the “luminescent signal upon addition of BacTiter-Glo (viable bacteria)” value (Bacteria) is reported as “less luminescent signal”.

Work on `NCC[C@H](O)C(=O)N[C@@H]1C[C@H](N)[C@@H](O[C@H]2O[C@H](CN)[C@@H](O)[C@H](O)[C@H]2O)[C@H](O)[C@H]1O[C@H]1O[C@H](CO)[C@@H](O)[C@H](N)[C@H]1O` [AMK, Amikacin] yielded an MIC (CLSI Ref) (E. coli; E. coli strain BEI 4.097) of 4 µg/mL, an MIC (CLSI Ref) (E. coli; E. coli strain CDC Carba36) of 4 µg/mL and an MIC (CLSI Ref) (E. coli; [1]) of 4 µg/mL. The MIC (CLSI Ref) (E. coli; [2]) was 4 µg/mL, the MIC (CLSI Ref) (E. coli; [3]) was 4 µg/mL and the MIC (CLSI Ref) (E. coli; [4]) was 4 µg/mL. It also gave an MIC (CLSI Ref) (E. coli; [5]) of 4 µg/mL, an MIC (CLSI Ref) (E. coli; [6]) of 2 µg/mL and an MIC (CLSI Ref) (E. coli; [7]) of 4 µg/mL. For the same compound, the MIC (CLSI Ref) (E. coli; [8]) was 4 µg/mL, the MIC (CLSI Ref) (E. coli; [9]) was 8 µg/mL and the MIC (CLSI Ref) (E. coli; [10]) was 4 µg/mL. It also gave an MIC (CLSI Ref) (E. coli; [11]) of 4 µg/mL, an MIC (CLSI Ref) (E. coli; [12]) of 4 µg/mL and an MIC (P. aeruginosa; P. aeruginosa Strain 1, growth check value 2.18, 4 hours growth, read-out: MIC) of 8 µg/mL (≈ 13.7 µM). For the same compound, the MIC (P. aeruginosa; P. aeruginosa Strain 2, growth checkpoint value 1.13, no reliable MIC data obtained, read-out: MIC expected) was 8 µg/mL (≈ 13.7 µM).

Work on Penicillin yielded an MIC (CLSI Ref) (E. coli; E. coli strain BEI 4.097) of 16 µg/mL, an MIC (CLSI Ref) (E. coli; E. coli strain CDC Carba36) of over 16 µg/mL and an MIC (CLSI Ref) (E. coli; [1]) of over 16 µg/mL. It also gave an MIC (CLSI Ref) (E. coli; [2]) of over 16 µg/mL, an MIC (CLSI Ref) (E. coli; [3]) of over 16 µg/mL and an MIC (CLSI Ref) (E. coli; [4]) of over 16 µg/mL. The MIC (CLSI Ref) (E. coli; [5]) was 16 µg/mL, the MIC (CLSI Ref) (E. coli; [6]) was over 16 µg/mL and the MIC (CLSI Ref) (E. coli; [7]) was over 16 µg/mL. The MIC (CLSI Ref) (E. coli; [8]) was over 16 µg/mL, the MIC (CLSI Ref) (E. coli; [9]) was over 16 µg/mL and the MIC (CLSI Ref) (E. coli; [10]) was over 16 µg/mL. It also gave an MIC (CLSI Ref) (E. coli; [11]) of over 16 µg/mL and an MIC (CLSI Ref) (E. coli; [12]) of 16 µg/mL.

For `C[C@@H](O)[C@H]1C(=O)N2C(C(=O)O)=C(SCCN=CN)C[C@H]12` [IPM, Imipinem], the MIC (CLSI Ref) (E. coli; E. coli strain BEI 4.097) was under 0.12 µg/mL, the MIC (CLSI Ref) (E. coli; E. coli strain CDC Carba36) was under 0.12 µg/mL and the MIC (CLSI Ref) (E. coli; [1]) was under 0.12 µg/mL. It also gave an MIC (CLSI Ref) (E. coli; [2]) of under 0.12 µg/mL, an MIC (CLSI Ref) (E. coli; [3]) of 0.25 µg/mL and an MIC (CLSI Ref) (E. coli; [4]) of under 0.12 µg/mL. For the same compound, the MIC (CLSI Ref) (E. coli; [5]) was under 0.12 µg/mL, the MIC (CLSI Ref) (E. coli; [6]) was under 0.12 µg/mL and the MIC (CLSI Ref) (E. coli; [7]) was 0.5 µg/mL. For the same compound, the MIC (CLSI Ref) (E. coli; [8]) was under 0.12 µg/mL, the MIC (CLSI Ref) (E. coli; [9]) was under 0.12 µg/mL and the MIC (CLSI Ref) (E. coli; [10]) was 0.25 µg/mL. The MIC (CLSI Ref) (E. coli; [11]) was under 0.12 µg/mL and the MIC (CLSI Ref) (E. coli; [12]) was under 0.12 µg/mL.
